This is an account of results in US20070179152A1, “Combination therapy for the treatment of neoplasms” (priority 2003, published 2007).

Where a name gives a salt, the structure may show the parent alone. Read-outs that look alike come from different tables or passages of the source.

Common to all, as to format: cell-based
Assay [1] concerns HCT116 cells. Description: Anti-proliferation assay (Alamar Blue metabolism), HCT116. The note with it: Homo sapiens, read-out: Percent inhibition of Alamar Blue Metabolism. On the procedure: (§1) Itraconazole was obtained from […].). Stock solutions (1000×) of each compound were prepared in DMSO and stored at -20° C. Master stock plates of 2-fold serial dilutions of individual compounds were prepared in 384-well plates. Combination matrices of test compounds were generated from these master stock plates by dilution into growth media described above. […] The combination matrices were used immediately and discarded. The anti-proliferation assays were performed in 384 well plates. […] Cells were diluted in culture media such that 3,000 SKMEL cells, or 1,500 cells for all the other cell lines, were delivered in 35 μl of media into each assay well. […] Then, 4.5 μl of 10× stock solutions from the combination matrices were added to 40 μl of culture media. […] Quantification, using the LJL Analyst AD reader (LJL Biosystems), was taken in the middle of the well with high attenuation, a 100 msec read time, an excitation filter at 530 nm, and an emission filter at 575 nm. For some experiments, quantification was performed using a Wallac Victor^2 reader. Measurements were taken at the top of the well with stabilized energy lamp control; a 100 msec read time, an excitation filter at 530 nm, and an emission filter at 590 nm.

For assay [2], the system named is DU145 cells. Description: Anti-proliferation assay (Alamar Blue metabolism), DU145. Conditions: Homo sapiens, DU-145; read-out: Percent inhibition of Alamar Blue Metabolism. On the procedure: as §1
Background: The colour change of resazurin is a common sign of viable cells or microbes.

The subject of assay [3] is A549 cells. In words: Anti-proliferation assay (Alamar Blue metabolism), A549. Conditions: Homo sapiens, read-out: Percent inhibition of Alamar Blue Metabolism. On the procedure:
as §1

Assay [4] concerns SKMEL-28 cells. In words: Anti-proliferation assay (Alamar Blue metabolism), SKMEL-28. Conditions: Homo sapiens, SK-MEL-28; read-out: Percent inhibition of Alamar Blue Metabolism. On the procedure: as §1

A word on the inhibition: it is the relative decrease from the control value, in per cent. With `CC(C)COCC(CN(Cc1ccccc1)c1ccccc1)N1CCCC1` (stereo not drawn) [Bepridil, beta-((2-methylpropoxy)methyl)-N-phenyl-N-(phenylmethyl)-1-pyrrolidineethanamine], the inhibition at 1.5 µM in assay [1] (HCT-116, itraconazole 0 μM, bepridil 1.5 μM) was 5.1%. Further, in assay [1] (HCT-116, itraconazole 0 μM, bepridil 3 μM), the inhibition at 3 µM was 17.4%. Further, the inhibition at 6.1 µM in assay [1] (HCT-116, itraconazole 0 μM, bepridil 6.1 μM) is 54%. Also, in assay [1] (HCT-116, itraconazole 0 μM, bepridil 12 μM), the inhibition at 12 µM came to 33.2%. The inhibition at 24 µM in assay [1] (HCT-116, itraconazole 0 μM, bepridil 24 μM) is 79%. Besides, in assay [1] (HCT-116, itraconazole 0 μM, bepridil 48 μM), the inhibition at 48 µM is 96.4%.

Regarding `CCC(C)n1ncn(-c2ccc(N3CCN(c4ccc(OCC5COC(Cn6cncn6)(c6ccc(Cl)cc6Cl)O5)cc4)CC3)cc2)c1=O` (centres unmarked) [Itraconazole, itraconazole], the inhibition at 0.44 µM was -1.6% in assay [2]; 3.7% in assay [3]; -2.8% in assay [1] (HCT-116, amiodarone 0 μM, itraconazole 0.44 μM); -1.4% in assay [1] (HCT-116, itraconazole 0.44 μM, bepridil 0 μM); -0.5% in assay [1] (HCT-116, itraconazole 0.44 μM, nicardipine 0 μM); 1.5% in assay [4]. The inhibition at 0.87 µM in assay [2] was found to be 4.9%; in assay [3], 11.5%; in assay [1] (HCT-116, amiodarone 0 μM, itraconazole 0.87 μM), 1.9%; in assay [1] (HCT-116, itraconazole 0.87 μM, bepridil 0 μM) it was 13.3%; in assay [1] (HCT-116, itraconazole 0.87 μM, nicardipine 0 μM), 12.3%; in assay [4], 4.4%. For the same compound, the inhibition at 1.7 µM in assay [2] was -4.2%; in assay [3], 2.8%; in assay [1] (HCT-116, amiodarone 0 μM, itraconazole 1.7 μM), 8.5%; in assay [1] (HCT-116, itraconazole 1.7 μM, bepridil 0 μM), 26.4%; in assay [1] (HCT-116, itraconazole 1.7 μM, nicardipine 0 μM), 15.4%; in assay [4], 6.6%. Also, the inhibition at 3.5 µM in assay [2] is -10.1%; in assay [3], 8%; in assay [1] (HCT-116, amiodarone 0 μM, itraconazole 3.5 μM), 17.5%; in assay [1] (HCT-116, itraconazole 3.5 μM, bepridil 0 μM) it was 30.3%; in assay [1] (HCT-116, itraconazole 3.5 μM, nicardipine 0 μM) it was 20.1%; in assay [4], 10.4%. For the same compound, the inhibition at 7 µM in assay [2] was -13%; in assay [3], 6.3%; in assay [1] (HCT-116, amiodarone 0 μM, itraconazole 7 μM), 20.4%; in assay [1] (HCT-116, itraconazole 7 μM, bepridil 0 μM), 33.1%; in assay [1] (HCT-116, itraconazole 7 μM, nicardipine 0 μM), 32.7%; in assay [4] it was 12.6%. Besides, the inhibition at 14 µM in assay [2] was -4.3%; in assay [3], 7.4%; in assay [1] (HCT-116, amiodarone 0 μM, itraconazole 14 μM), 19.1%; in assay [1] (HCT-116, itraconazole 14 μM, bepridil 0 μM) it was 17.8%; in assay [1] (HCT-116, itraconazole 14 μM, nicardipine 0 μM) it was 19.8%; in assay [4], 14%. Besides, the inhibition at 28 µM in assay [2] is -4.6%; in assay [3], 9.7%; in assay [1] (HCT-116, amiodarone 0 μM, itraconazole 28 μM), 16%; in assay [1] (HCT-116, itraconazole 28 μM, bepridil 0 μM), 17.2%; in assay [1] (HCT-116, itraconazole 28 μM, nicardipine 0 μM), 22.4%; in assay [4] it was 15%. Also, the inhibition at […] in assay [1] (HCT-116, amiodarone 0 μM, itraconazole […]) was -0.7%; in assay [1] (HCT-116, itraconazole […], bepridil 0 μM), 5.8%; in assay [1] (HCT-116, itraconazole […], nicardipine 0 μM) it was 3%.

`COC(=O)C1=C(C)NC(C)=C(C(=O)OCCN(C)Cc2ccccc2)C1c1cccc([N+](=O)[O-])c1` (centres unmarked) [Nicardipine, 2-(benzyl-methylamino)ethyl methyl 1,4-dihydro-2,6-dimethyl-4-(m-nitrophenyl)-3,5-pyridinedicarboxylate monohydrochloride]: the inhibition at 0.3 µM in assay [1] (HCT-116, itraconazole 0 μM, nicardipine 0.3 μM) amounted to 2.6%. Further, in assay [1] (HCT-116, itraconazole 0 μM, nicardipine 0.61 μM), the inhibition at 0.61 µM came out at 1.4%. In addition, in assay [1] (HCT-116, itraconazole 0 μM, nicardipine 1.2 μM), the inhibition at 1.2 µM is 2.5%. Further, the inhibition at 2.4 µM in assay [1] (HCT-116, itraconazole 0 μM, nicardipine 2.4 μM) was 5.2%. For the same compound, in assay [1] (HCT-116, itraconazole 0 μM, nicardipine 4.8 μM), the inhibition at 4.8 µM was found to be 7.5%. Moreover, the inhibition at 9.7 µM in assay [1] (HCT-116, itraconazole 0 μM, nicardipine 9.7 μM) was 9.7%. The inhibition at 19 µM in assay [1] (HCT-116, itraconazole 0 μM, nicardipine 19 μM) was found to be 25.2%. In assay [1] (HCT-116, itraconazole 0 μM, nicardipine 39 μM), the inhibition at 39 µM was 81.7%.
